From PMC5760651, “Peptidomimetic blockade of MYB in acute myeloid leukemia” (Nature Communications, 2018)
Non-standard residues stand in square brackets, D forms with d. Residues, ends and D or L forms follow the SMILES beside them.

Tests used:
[1] = system: MOLM-13, MV-411, ML-2 and HL-60 cells; assay: Cell viability of AML cell lines; assay type: cell-based, human; settings: 6 days, 20 μM TG1, TG2 or TG3, 10 and 20 μM MYBMIM, peptide replacement every 48 h, compared to untreated control
Method: (§1) Cells were resuspended and plated at a concentration of 2 × 10^5 cells in 200 μl in 96-well tissue culture plates. Media with peptides was replaced every 48 h. To assess the number of viable cells, cells were resuspended in PBS and 10 µl of suspension was mixed in a 1:1 ratio with 0.4% Trypan Blue (Thermo Fisher) and counted using a hemacytometer (Hausser Scientific, Horsham, PA, USA). To assess viability using an ATP-based assay, cell viability was assessed using the CellTiter-Glo Luminescent Viability assay, according to the manufacturer’s instructions (Promega). Luminescence was recorded using the Infinite M1000Pro plate reader using integration time of 250 ms (Tecan).

MOLM-13 cells = assay: RNA-seq transcriptome profiling; assay type: cell-based, human; settings: MOLM13 cells, 20 µM, 6 h
Method: Reads were quality and adapter trimmed using “trim_galore” before aligning to human assembly hg19 with STAR v2.5 using the default parameters. Coverage and post-alignment quality were assessed using the Picard tool CollectRNASeqMetrics (http://broadinstitute.github.io/picard/). Read count tables were created using HTSeq v0.6.1. Normalization and expression dynamics were evaluated with DESeq2 using the default parameters.

CBP KIX domain = target: T1, CBP KIX domain (Mus musculus, UniProt P45481); assay: Microscale thermophoresis binding of FITC-conjugated peptides to purified recombinant CBP KIX domain; settings: 50 mM sodium phosphate, 150 mM NaCl, 0.01% NP-40, pH 5.5, room temperature, ± standard error mean of three biological replicates
T1 construct: Bacterial expression pGEX-KIX vector encoding the KIX domain of CBP; GST (N, cleaved yes); made in house; host or cells: E. coli BL21(DE3)
T1 sequence (P45481 586-665 limits assumed): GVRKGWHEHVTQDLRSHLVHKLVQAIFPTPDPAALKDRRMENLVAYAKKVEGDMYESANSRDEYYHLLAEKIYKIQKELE
Method: BL21(DE3) cells (Invitrogen) transformed with pGEX-KIX plasmid were induced at 37 °C with isopropyl β-D-1-thiogalactopyranoside for 3 h. Cells were lysed in 50 mM Tris–HCl pH 7.3, 150 mM NaCl, 0.1% Tween-20, 1 mM DTT, 5 mM EDTA, supplemented with protease inhibitors described above and sonicated for ten minutes (15 s on, 15 s off, 40% amplitude) using the Misonix probe sonicator (Qsonica, Newtown, CT). Lysate was cleared by centrifugation for 1 h at 21,800 × g at 4 °C. Cleared lysate was incubated with 4 ml glutathione agarose resin slurry (GoldBio) for 1 h at 4 °C to capture GST-KIX. Resin was washed four times with 50 mM Tris–HCl pH 7.4, 150 mM NaCl. KIX domain was cleaved from GST by incubation of resin-bound GST-KIX with 160 U thrombin (GE Healthcare) overnight at room temperature. Resin was centrifuged at 500 × g for 5 min. […] Cleaved KIX was purified using a linear gradient of 50 mM to 1 M NaCl by cation exchange chromatography using MonoS 5/50 GL column (GE Healthcare). […] Binding of purified recombinant KIX with FITC-conjugated peptides was measured using Monolith NT.115 (NanoTemper Technologies). Assays were conducted in 50 mM sodium phosphate, 150 mM NaCl, 0.01% NP-40, pH 5.5. […] MST measurements were recorded at room temperature for 10 s per capillary using fixed IR-laser power of 80% and LED excitation power of 40–50%.

MV-411 cells [2] = assay: MYB ChIP-seq; assay type: cell-based, human; settings: 20 µM, 6 h, 3 biological replicates
Method: ChIP was performed as previously described. Briefly, cells were fixed in 1% formalin in phosphate-buffered saline (PBS) for 10 minutes at room temperature. Glycine (125 mM final concentration) and Tris-HCl pH 8 (100 mM final concentration) were added to the cells and cells were washed twice in ice-cold PBS and resuspended in sodium dodecyl sulfate (SDS) lysis buffer (1% SDS, 10 mM EDTA, 50 mM Tris–HCl, pH 8.1). Lysates were sonicated using the Covaris S220 adaptive focused sonicator to obtain 100–500 bp chromatin fragments (Covaris, Woburn, CA). Lysates containing sheared chromatin fragments were resuspended in 0.01% SDS, 1.1% Triton-X100, 1.2 mM EDTA, 16.7 mM Tris–HCl, pH 8.1,167 mM NaCl. Lysates and antibody-coupled beads were incubated over night at 4 °C. […] Libraries were sequenced on the Illumina HiSeq 2500 instruments, with 30 million 2 × 50 bp paired reads.
For ChIP-seq analysis, reads were quality and adapter trimmed using ‘trim_galore’ before aligning to human genome assembly hg19 with bwa mem using the default parameters. Aligned reads with the same start position and orientation were collapsed to a single read before subsequent analysis. Density profiles were created by extending each read to the average library fragment size and then computing density using the BEDTools suite. Enriched regions were discovered using MACS 2.0 and scored against matched input libraries. […]

MV-411 cells [3] = assay: Growth and survival of MV-411 cells with ectopic BCL2 (MIG-BCL2) or empty MIG vector; assay type: cell-based, human; settings: 20 μM, p = 0.003
Method: as §1
The MIG-BCL2 vector was packaged using pUMVc and pCMV-VSVG vectors in HEK 293T cells and the FuGENE 6 transfection reagent, according to manufacturer’s instructions (Promega). Virus supernatant was collected at 48 and 72 h post transfection, pooled, filtered and stored at −80 °C. Cells were transduced with virus particles at a multiplicity of infection of 1 by spin inoculation for 90 min at 3500 rpm at 35 °C in the presence of 8 μg/ml hexadimethrine bromide. Two days after transduction, cells were isolated using fluorescence-activated cell sorting (FACSAria III, BD Bioscience, San Jose, CA, USA).

MV-411 and MOLM-13 cells = assay: qRT-PCR of BCL2 mRNA expression; assay type: cell-based, human; settings: 20 μM, 6 h
Method: RNA was isolated using Trizol reagent according to the manufacturer’s instructions (Life Technologies). Complementary DNA was synthesized using the SuperScript III First-Strand Synthesis system according to the manufacturer’s instructions (Invitrogen). Quantitative real-time PCR was performed using the KAPA SYBR FAST PCR polymerase with 20 ng template and 200 nM primers, according to the manufacturer’s instructions (Kapa Biosystems, Wilmington, MA, USA). PCR primers are listed in Supplementary Table 4. Ct values were calculated using ROX normalization using the ViiA 7 software (Applied Biosystems).

CC[C@@H](C)[C@@H](NC(=O)[C@@H](CCCCN)NC(=O)[C@@H](CCC(=O)O)NC(=O)[C@@H](CC(C)C)NC(=O)[C@@H](CCC(=O)O)NC(=O)[C@@H](CC(C)C)NC(=O)[C@@H](CC(C)C)NC(=O)CNC(=O)[C@@H](CCSC)NC(=O)[C@@H](CO)NC(=O)[C@H](NC(=O)[C@@H](CCC(=O)O)NC(=O)[C@@H](CC(N)=O)NC(=O)CNC(=O)[C@@H](CC(C)C)NC(=O)[C@@H](CCCCN)NC(C)=O)[C@H](C)O)C(=O)NCC(=O)N[C@H](CCCCN)C(=O)NCC(=O)NCC(=O)N[C@H](CCCNC(=N)N)C(=O)N[C@H](CCCNC(=N)N)C(=O)N[C@H](CCCNC(=N)N)C(=O)N[C@H](CCC(N)=O)C(=O)N[C@H](CCCNC(=N)N)C(=O)N[C@H](CCCNC(=N)N)C(=O)N[C@H](CCCCN)C(=O)N[C@H](CCCCN)C(=O)N[C@H](CCCNC(=N)N)C(=O)NCC(=O)N[C@H](Cc1ccc(O)cc1)C(N)=O [TG3] (Ac-[dK][dL]G[dN][dE][dT][dS][dM]G[dL][dL][dE][dL][dE][dK][dI]G[dK]GG[dR][dR][dR][dQ][dR][dR][dK][dK][dR]G[dY]-NH2)
Growth of AML cell lines [1]: inactive
Changes in gene expression as compared to mock-treated cells (MOLM-13 cells): no significant changes in gene expression
Kd (CBP KIX domain): 113 ± 36.6 µM
MYB complexes bound to promoters and enhancers eliminated (MV-411 cells [2]): inactive
Cell growth and survival of mock-treated and MIG empty vector control transduced MV-411 cells (MV-411 cells [3]): inactive
BCL2 expression downregulation (MV-411 and MOLM-13 cells): not
